In PubChem BioAssay (NCI):
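In this assay, cells in 96-well plates receive the compound at five concentrations for 48 hours. Endpoints are linearly interpolated between the surrounding concentrations. TGI is the concentration that stops growth completely.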

Legend:
Test in all cases: NCI-60 cell line screen, 48 h
NCI-H522 lung = test system: NCI-H522 lung
RXF 393 renal = test system: RXF 393 renal
NCI-H23 lung = test system: NCI-H23 lung
OVCAR-8 ovarian = test system: OVCAR-8 ovarian
TK-10 renal = test system: TK-10 renal
MOLT-4 leukemia = test system: MOLT-4 leukemia
SF-295 CNS = test system: SF-295 CNS
CCRF-CEM leukemia = test system: CCRF-CEM leukemia
MDA-N = test system: MDA-N
UACC-257 melanoma = test system: UACC-257 melanoma
HCC-2998 colon = test system: HCC-2998 colon
OVCAR-3 ovarian = test system: OVCAR-3 ovarian
A498 renal = test system: A498 renal
SK-MEL-28 melanoma = test system: SK-MEL-28 melanoma
SW-620 colon = test system: SW-620 colon
SN12C renal = test system: SN12C renal
ACHN renal = test system: ACHN renal
PC-3 prostate = test system: PC-3 prostate
T-47D breast = test system: T-47D breast
OVCAR-4 ovarian = test system: OVCAR-4 ovarian
M14 melanoma = test system: M14 melanoma
MDA-MB-231 breast = test system: MDA-MB-231 breast
COLO 205 colon = test system: COLO 205 colon
MCF7 breast = test system: MCF7 breast
K-562 leukemia = test system: K-562 leukemia
U251 CNS = test system: U251 CNS
SF-268 CNS = test system: SF-268 CNS
SK-MEL-5 melanoma = test system: SK-MEL-5 melanoma
A549 NSCLC = test system: A549 NSCLC
HOP-92 NSCLC = test system: HOP-92 NSCLC
NCI-H226 lung = test system: NCI-H226 lung
UO-31 renal = test system: UO-31 renal
HS 578T breast = test system: HS 578T breast
MDA-MB-435 = test system: MDA-MB-435
SNB-75 CNS = test system: SNB-75 CNS
SNB-19 CNS = test system: SNB-19 CNS
HCT-116 colon = test system: HCT-116 colon
SR leukemia = test system: SR leukemia
HCT-15 colon = test system: HCT-15 colon
KM12 colon = test system: KM12 colon
HT29 colon = test system: HT29 colon
DU-145 prostate = test system: DU-145 prostate
LOX IMVI melanoma = test system: LOX IMVI melanoma
NCI-H460 lung = test system: NCI-H460 lung
NCI/ADR-RES ovarian = test system: NCI/ADR-RES ovarian
BT-549 breast = test system: BT-549 breast
SF-539 CNS = test system: SF-539 CNS
OVCAR-5 ovarian = test system: OVCAR-5 ovarian
EKVX NSCLC = test system: EKVX NSCLC
HOP-62 NSCLC = test system: HOP-62 NSCLC
MALME-3M melanoma = test system: MALME-3M melanoma
CAKI-1 renal = test system: CAKI-1 renal
786-0 renal = test system: 786-0 renal
SK-OV-3 ovarian = test system: SK-OV-3 ovarian
RPMI-8226 leukemia = test system: RPMI-8226 leukemia
UACC-62 melanoma = test system: UACC-62 melanoma
SK-MEL-2 melanoma = test system: SK-MEL-2 melanoma
HL-60(TB) leukemia = test system: HL-60(TB) leukemia

Measured: TGI

C=CCNc1ccc(C)cc1
30.7 µM: A498 renal
not listed: BT-549 breast | SF-539 CNS | OVCAR-5 ovarian | EKVX NSCLC | HOP-62 NSCLC | MALME-3M melanoma | CAKI-1 renal | 786-0 renal | SK-OV-3 ovarian | RPMI-8226 leukemia | UACC-62 melanoma | SK-MEL-2 melanoma | HL-60(TB) leukemia
> 100 µM: all other assays above

Cc1nnc([C@@]2(C)CC[C@H]3[C@@H](CC=C4C[C@@H](O)CC[C@@]43C)[C@@H]2CC#N)o1
not listed: HCC-2998 colon | SK-MEL-28 melanoma | T-47D breast | DU-145 prostate | NCI-H460 lung
> 100 µM: all other assays above
